Measured values: PMC12598616, “Design and optimization of caspase-1-responsive fluorescent probes for pyroptosis imaging and anti-pyroptosis drug screening” (Chemical Science, 2025)

Tested on: osteoarthritis mouse model (ACL transection)
Test: In vivo fluorescence imaging of osteoarthritis
Design: species or system C57BL/6J mouse
Details: injected into joint cavity; 0, 7, 14, 21 days post-surgery
Protocol: The decline in chondrocyte function plays a crucial role in the pathogenesis of OA. Inflammasome-mediated chondrocyte pyroptosis has been closely associated with matrix degradation and cartilage degeneration in OA.[38] To model OA in vitro, primary chondrocytes were stimulated with H2O2 (2 mM) for different durations, followed by staining with FPy1 (5 μM) and fluorescence imaging to monitor the progression of pyroptosis under oxidative stress. […] To better mimic the in vivo pathological features of OA, primary chondrocytes were also cultured as three-dimensional spheroids and stimulated with H2O2. […] Furthermore, we evaluated the capability of FPy1 to monitor pyroptosis progression at different stages of OA in a mouse model. […] The pathological manifestations in the corresponding tissues became more pronounced with longer modeling periods, consistent with the fluorescence imaging results obtained using FPy1. […]
Harvested rat discs were fixed in 4 % buffered paraformaldehyde for 24 hours, decalcified in 10 % ethylenediaminetetraacetic acid (EDTA, Solarbio, E8030) solution for 1 month, embedded in paraffin, and sectioned at a thickness of 5 μm. […] Stained sections were evaluated by three independent raters, blinded to the research protocol, and measurements were averaged for statistical analysis. […]
In vivo fluorescence imaging of intervertebral disc degeneration […]

## –FLTDG– [FPy1, RhoB donor, hNR quencher]
  in vivo fluorescence signals in knee joints: gradually increasing as the modeling duration was extended
